The source of these data is patent publication US20220251096A1, “7,8-DIHYDRO-4H-PYRAZOLO[4,3-c]AZEPINE-6-ONE COMPOUNDS” (Eli Lilly and Company, priority 2019, published 2022).

The IC50 is the midpoint of a concentration-inhibition curve. A higher IC50 goes with lower potency. In general, Kd refers to the free concentration of one partner at which half of the binding sites on the other are occupied at equilibrium, for simple one-to-one binding. Read a high Kd as a looser complex.

The test system of test [1] is KG-1a. The test is described as follows: Cell growth inhibition assay, KG-1a. The class given is cell-based. The following applies: Homo sapiens, 168 h, 7 days. As to the method: (§1) Tumor cell lines are plated onto 96-well, black wall poly-D-lysine plates (Corning #354640), and incubated at 37° C., 5% CO2 for 18-24 hours. Compound was added at 1:3 dilutions in DMSO and cells were incubated at 37° C., 5% CO2 for 7 days. For adherent cell lines, cells were fixed and stained with propidium iodide and scanned on Acumen (channel 3 setting). For suspension cell lines, cell growth was monitored using Cell Titer-Glo reagent.

In test [2] the test system is KG-1. The test is described as follows: Cell growth inhibition assay, KG-1. In kind it is cell-based. The following applies: Homo sapiens, 168 h; KG-1, 7 days. As to the method:
as §1

Test [3] concerns HL-60. The test is described as follows: Cell growth inhibition assay, HL-60. In kind it is cell-based. As to conditions: Homo sapiens, 168 h; HL-60, 7 days. As to the method: as §1
Test [4] deals with T1, hBRD4 (Homo sapiens, UniProt O60885).
T1 construct: NanLuc-BRD4 Full Length (Promega, 0.0002 μg); host or cells: HEK293
The test is described as follows: NanoBRET assay, BRD4 full length. The class given is cell-based. As to conditions: NanoBRET in HEK293 cells, read after overnight incubation; mean ± Standard Deviation. As to the method: HEK293 cells are seeded at 10×10^6 cells/16 mL in DMEM+10% FBS in a T-75 flask and left to attach for 4-6 hours. Transfection reagents are diluted in Opti-MEM media (no phenol red, no FBS) and 8% Fugene HD containing expression plasmids at a final concentration of the following: 1: Histone H3.3 HaloTag DNA (Promega, 0.02 μg)+NanoLuc-CREBBP-BD (Promega, 0.0002 μg); 2: Histone H3.3 HaloTag DNA (Promega, 0.02 μg)+NanoLuc-EP300-BD (Promega, 0.0002 μg); 3: Histone H4 HaloTag DNA (0.02 μg)+NanLuc-BRD4 Full Length (Promega, 0.0002 μg). The DNA/Fugene mixtures are left at RT for 10 minutes. Transfection mix (800 μL) is added per flask and immediately swirled to cover the cells. The plates are returned to the incubator for overnight transfection. The next day, HaloTag NanoBRET 618 ligand (20 μL/vial of 0.1 mM) is thawed at RT. […]
Compound is serially diluted and added to 96-well plates (2 10 mM, 3-fold dilutions, 100% DMSO). […] CREBBP/EP300 plates are read after 4 hours incubation and the BRD4 plates are read after overnight incubation. To develop plates for reading, allow all reagents to reach RT before use. […] The plate is shaken for 1 minute to mix and within 10 minutes, read on Envision plate reader with the following settings: Mirror: Luminescence; Emission filter: E600LP; 2nd emission filter: D460/50; Measurement height (mm): 6.5; Measurement time (s): 0.2 second.
For orientation: BRET reads energy transfer from a luciferase to a nearby fluorophore.

In test [5] the test system is EOL-1. The test is described as follows: Cell growth inhibition assay, EOL-1. The class given is cell-based. As to conditions: Homo sapiens, EOL1, 168 h; EOL-1, 7 days. As to the method:
as §1

Test [6] relates to MOLM-16. The test is described as follows: Cell growth inhibition assay, MOLM-16. The class given is cell-based. As to conditions: MOLM16, 168 h; MOLM-16, 7 days. As to the method: as §1
The test system of test [7] is OCI-AML3. The test is described as follows: Cell growth inhibition assay, OCI-AML3. The class given is cell-based. As to conditions: Homo sapiens, OCI-AML-3, 168 h; OCI-AML3, 7 days. As to the method: as §1
Test [8] deals with THP-1. The test is described as follows: Cell growth inhibition assay, THP-1. In kind it is cell-based. As to conditions: Homo sapiens, 168 h; THP-1, 7 days. As to the method: as §1
Test [9] relates to NCI-H211. The test is described as follows: Cell growth inhibition assay, NCI-H211. The class given is cell-based. As to conditions: Homo sapiens, 168 h; NCI-H211, 7 days. As to the method:
as §1

Test [10] concerns SW780. The test is described as follows: Cell growth inhibition assay, SW780. The class given is cell-based. As to conditions: Homo sapiens, 168 h; SW780, 7 days. As to the method:
as §1

Test [11] has as its target T2, BRD4 (BD2) (Homo sapiens, UniProt O60885).
T2 construct: BRD4 (Bromodomain 1 (BD1) and Bromodomain 2 (BD2)); purchased DiscoverX (BromoKdELECT service)
The test is described as follows: BromoKdELECT platform assay, BRD4 (BD2). In kind it is binding. The following applies: 11 points dose-response, mean from a duplicate experiment. An excerpt:
The purpose of this assay is to evaluate the in vitro target engagement and selectivity (https://www.discoverx.com/services/drug-discovery-development-services/epigenetic-profiling/bromoscan-epigenetic-profiling/bromokdelect). Assay measurement is based on the amount of bromodomain captured in test and control samples by using quantitative PCR technology that detects the DNA label associated to bromodomain. Compounds that bind the bromodomain active site prevents its binding to the immobilized ligand and will reduce the amount of bromodomain captured on the solid support. […] Thus, compound activity is monitored by measuring the amount of bromodomain captured in test versus control samples by using qPCR. Binding affinity for test compound-bromodomain interactions are calculated by measuring the amount of bromodomain captured on the solid support as a function of the test compound concentration.
Binding affinity (Kd) of the compounds of Examples 1 and 2 towards CREBBP, EP300 and BRD4 (Bromodomain 1 (BD1) and Bromodomain 2 (BD2)) are determined in an 11 points dose-response study (See Table 5). Data is represented as a mean from a duplicate experiment.

In the case of `CCNC(=O)c1ccc(-c2cc3cccc(-c4nn(C)c5c4CN(C)C(=O)CC5)c3cn2)cn1` [Example 2, 5-[8-(1,5-Dimethyl-6-oxo-7,8-dihydro-4H-pyrazolo[4,3-c]azepin-3-yl)-3-isoquinolyl]-N-ethyl-pyridine-2-carboxamide], the concentration for half-maximal inhibition (IC50) in test [1] came to 2 nM; in test [2], 83 nM; in [3], 328 nM; in test [4], 11800 nM; in [5] it was 1 nM; in test [6] it was 129 nM. Also, the half-maximal inhibitory concentration (IC50) in [7] turned out to be 226 nM; in test [8], 29 nM; in test [9], 65 nM; in test [10], 4 nM. The molecule further yielded a dissociation constant Kd in [11] of 6800 nM.
